{"source": "patent US20240336900A1", "about": "“METHODS AND COMPOSITIONS RELATED TO MODIFIED METHYLTRANSFERASES AND ENGINEERED BIOSENSORS” (BOARD OF REGENTS, THE UNIVERSITY OF TEXAS SYSTEM, priority 2023, published 2024)", "key": {"4NB2.1 biosensor": {"molecular_target": "T1, 4NB2.1 biosensor (Salmonella typhimurium, UniProt Q8ZR43, C134D/K63T/L66M/S137G)", "T1 construct": "expressed in transfected cells; host or cells: E. coli DH10B", "T1 sequence (Q8ZR43 other isoform, or with tags, fused parts or gaps K63T/L66M/C134D/S137G)": "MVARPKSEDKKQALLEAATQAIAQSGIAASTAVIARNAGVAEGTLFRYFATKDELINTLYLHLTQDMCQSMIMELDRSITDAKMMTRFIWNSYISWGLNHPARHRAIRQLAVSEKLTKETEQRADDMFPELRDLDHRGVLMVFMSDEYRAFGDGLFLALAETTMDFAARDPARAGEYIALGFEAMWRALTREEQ", "test": "Dose response of the evolved 4NB2.1 biosensor to 4NB (fluorescence, RFU/OD)", "type": "cell-based, Escherichia coli", "procedure": "For sensor variant validation, the subcloned pReg-RamR vectors expressing the sensor variants were transformed into DH10B cells expressing Pramr-GFP. These cultures were then assayed, as described in Biosensor response assay, using eight different concentrations of the 4NB.\nGlycerol stocks (20% glycerol) of strains containing the plasmids of interest were inoculated into 1 ml LB medium and grown overnight at 37° C. Twenty microliters of overnight culture was seeded into 900 μl LB medium containing ampicillin and chloramphenicol in a 2-ml 96-deep-well plate sealed with an AeraSeal film. Following growth at 37° C. and 250 r.p.m. for 2 h, cultures were induced with 100 μl of an LB medium solution containing appropriate antibiotics and the inducer molecule dissolved in 10 μl DMSO. Cultures were grown for an additional 4 h at 37° C. and 250 r.p.m. and subsequently centrifuged (3,500 g, 4° C., 10 min). Supernatant was removed, and cell pellets were resuspended in 1 ml PBS. The cell resuspension (100 μl) for each condition was transferred to a 96-well microtiter plate, from which the fluorescence (excitation, 485 nm; emission, 509 nm) and absorbance (600 nm) were measured using the Tecan Infinite M1000 plate reader.\nBar graphs, fluorescence and growth curves, dose-response functions were all plotted in Python 3.6.9 using Matplotlib. Dose-response curves and EC50 values were estimated by fitting to the Hill equation y=d+(a−d)xb(cb+xb)−1 (where y=output signal, b=Hill coefficient, x=ligand concentration, d=background signal, a=maximum signal and c=EC50), with the scipy.optimize.curve_fit library in Python."}, "RamR": {"molecular_target": "T2, RamR (Salmonella typhimurium, UniProt Q8ZR43)", "T2 construct": "expressed in transfected cells; host or cells: E. coli DH10B", "T2 sequence (Q8ZR43 2-193, added parts left off)": "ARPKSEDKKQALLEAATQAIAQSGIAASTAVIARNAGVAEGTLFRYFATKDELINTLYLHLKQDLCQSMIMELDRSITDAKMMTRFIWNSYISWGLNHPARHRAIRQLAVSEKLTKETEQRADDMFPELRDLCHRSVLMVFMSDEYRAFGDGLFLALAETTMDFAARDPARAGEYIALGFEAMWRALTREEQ", "test": "Biosensor response assay, wild-type RamR with Pramr-GFP reporter", "type": "cell-based", "conditions": "pReg-RamR + Pramr-GFP, upon induction", "source_text": "The wild-type RamR sensor was constitutively expressed on one plasmid (pReg-RamR) in parallel with another plasmid bearing the regulator's cognate promoter upstream of the sfGFP gene (Pramr-GFP). […] To better understand this promiscuous binding activity, norbelladine was docked within the ligand binding pocket of RamR using GNINA 1.0 […], and a conformational pose was identified whereby the phenol moiety of norbelladine forms hydrogen bonds with S137 and T85, while the catechol moiety forms a hydrogen bond with K63.\nThe pReg-RamR and Pramr-GFP plasmids were co-transformed into DH10B cells, which were then plated on LB agar plates containing appropriate antibiotics. Three separate colonies were picked for each transformation and were grown overnight. The following day, 20 μL of each culture was then used to inoculate six separate wells in a 2-mL 96-deep-well plate (Corning, P-DW-20-C-S) sealed with an AeraSeal film (Excel Scientific) containing 900 μL LB medium, one for each test ligand and a solvent control. […] One hundred microliters of the cell resuspension for each condition was transferred to a 96-well microtiter plate (Corning, 3904), from which the fluorescence (excitation, 485 nm; emission, 509 nm) and absorbance (600 nm) were measured using the Tecan Infinite M1000 plate reader."}}, "data": [{"compound": "COc1ccc(CNCCc2ccc(O)cc2)cc1O", "note": "[4NB, 4-O'Methylnorbelladine]", "values": [{"measurement": "4NB2.1 biosensor measurement", "setting": "4NB2.1 biosensor; 1 uM 4NB supplemented into media", "result": 200.81, "unit": "RFU/OD"}, {"measurement": "4NB2.1 biosensor measurement", "setting": "4NB2.1 biosensor; 2.5 uM 4NB supplemented into media", "result": 240.62, "unit": "RFU/OD"}, {"measurement": "4NB2.1 biosensor measurement", "setting": "4NB2.1 biosensor; 5 uM 4NB supplemented into media", "result": 395.69, "unit": "RFU/OD"}, {"measurement": "4NB2.1 biosensor measurement", "setting": "4NB2.1 biosensor; 10 uM 4NB supplemented into media", "result": 944.28, "unit": "RFU/OD"}, {"measurement": "4NB2.1 biosensor measurement", "setting": "4NB2.1 biosensor; 25 uM 4NB supplemented into media", "result": 5648.44, "unit": "RFU/OD"}, {"measurement": "4NB2.1 biosensor measurement", "setting": "4NB2.1 biosensor; 50 uM 4NB supplemented into media", "result": 21194.72, "unit": "RFU/OD"}, {"measurement": "4NB2.1 biosensor measurement", "setting": "4NB2.1 biosensor; 100 uM 4NB supplemented into media", "result": 43800.94, "unit": "RFU/OD"}, {"measurement": "4NB2.1 biosensor measurement", "setting": "4NB2.1 biosensor; 250 uM 4NB supplemented into media", "result": 64506.12, "unit": "RFU/OD"}, {"measurement": "4NB2.1 biosensor measurement", "setting": "4NB2.1 biosensor; 500 uM 4NB supplemented into media", "result": 67029.6, "unit": "RFU/OD"}, {"measurement": "4NB2.1 biosensor measurement", "setting": "4NB2.1 biosensor; 1000 uM 4NB supplemented into media", "result": 62040.21, "unit": "RFU/OD"}, {"measurement": "EC50", "setting": "4NB2.1 biosensor; biosensor developed by directed evolution", "result": 20, "unit": "µM"}, {"measurement": "increase in fluorescence", "setting": "RamR", "result": 3.8, "unit": "fold"}]}, {"compound": "Oc1ccc(CCNCc2ccc(O)c(O)c2)cc1", "note": "[norbelladine]", "values": [{"measurement": "increase in fluorescence", "setting": "RamR", "result": 4.4, "unit": "fold"}]}]}
